# Tests used:
# human melanoma cells = test: Effect of pterostilbene on melanoma cell growth and viability in vitro; type: cell-based
# [1] = tested on: BxPC-3 pancreatic cancer cells; test: Nrf2- and redox state-related enzyme activities and metabolites in BxPC-3 cells growing in vivo; set-up: species or system human; details: BxPC-3, in vivo +Pter, day 35
# Experimental: To measure enzyme activity, isolated tumor cells were homogenized in 0.1 M phosphate buffer (pH 7.2) at 4° C. GCL and GSS activities were measured as described previously (Obrador, E. et al. Hepatology 35, 74-81 (2002)). GPX (selenium dependent) activity was measured as described by Flohé and Gunzler (Flohe, L. & Gunzler, W. A. Methods Enzymol 105, 114-121 (1984)) using H2O2 as a substrate. GSR activity was determined as described by Akerboom and Sies (Akerboom, T. P. et al, Bull Eur Physiopathol Respir 17 Suppl, 221-227 (1981)). GGT activity was measured as described previously (Obrador, E. et al. Hepatology 35, 74-81 (2002)). GST activity was measured using an assay kit from Sigma. TXNRD activity, defined by the concentration of sodium-lipoate (disulfide) reduced to dehydrolipoate (dithiol) per milligram protein, was measured as previously described (Javvadi, P. et al. Cancer Res 70, 1941-1950 (2010)). SOD activity was measured as described by Flohé and Otting (Flohe, L. & Otting, F. Methods Enzymol 105, 93-104 (1984).) using 2 mM cyanide in the assay medium to distinguish mangano-type enzyme (SOD2) from the cuprozinc type (SOD1). CAT activity was analyzed as described by Aebi (Aebi, H. Methods Enzymol 105, 121-126 (1984)). NOX activity was measured by chemiluminescence following the methodology of Wind et al. (Wind, S. et al. Comparative pharmacology of chemically distinct NADPH oxidase inhibitors. Br J Pharmacol 161, 885-898 (2010)). Protein concentration was determined with the Pierce BCA protein assay (Fisher Scientific, Waltham, Mass.). […]
# Quantitative measurement of H2O2 and flow cytometry determination of O2^⋅− generation were performed as previously described (Benlloch, M. et al. J Biol Chem 281, 69-79 (2006)).
# (§1) GSH, GSSG, NADP^+ and NADPH Determination.
# (§2) GSH and GSSG were determined, following procedures previously described (Obrador, E. et al. PLoS One 9, e96466 (2014)), by LC/MS using the same equipment described above for pterostilbene determination. Cell processing was performed according to published methodology, where rapid N-ethylmaleimide derivatization was used to prevent GSH auto-oxidation (Asensi, M. et al. Anal Biochem 217, 323-328 (1994)). NADP^+ and NADPH were quantitated using an assay kit from Sigma (St. Louis, Mo.).
# Caco-2 cells = test: GSH levels and glutathione- and oxidative stress-related enzyme activities in Caco-2 cells growing in vivo; set-up: species or system human; details: Caco-2, in vivo Pter, day 28
# Experimental: To measure enzyme activity, isolated tumor cells were homogenized in 0.1 M phosphate buffer (pH 7.2) at 4° C. GCL and GSS activities were measured as described previously (Obrador, E. et al. Hepatology 35, 74-81 (2002)). GPX (selenium dependent) activity was measured as described by Flohé and Gunzler (Flohe, L. & Gunzler, W. A. Methods Enzymol 105, 114-121 (1984)) using H2O2 as a substrate. GSR activity was determined as described by Akerboom and Sies (Akerboom, T. P. et al, Bull Eur Physiopathol Respir 17 Suppl, 221-227 (1981)). GGT activity was measured as described previously (Obrador, E. et al. Hepatology 35, 74-81 (2002)). GST activity was measured using an assay kit from Sigma. TXNRD activity, defined by the concentration of sodium-lipoate (disulfide) reduced to dehydrolipoate (dithiol) per milligram protein, was measured as previously described (Javvadi, P. et al. Cancer Res 70, 1941-1950 (2010)). SOD activity was measured as described by Flohé and Otting (Flohe, L. & Otting, F. Methods Enzymol 105, 93-104 (1984).) using 2 mM cyanide in the assay medium to distinguish mangano-type enzyme (SOD2) from the cuprozinc type (SOD1). CAT activity was analyzed as described by Aebi (Aebi, H. Methods Enzymol 105, 121-126 (1984)). NOX activity was measured by chemiluminescence following the methodology of Wind et al. (Wind, S. et al. Comparative pharmacology of chemically distinct NADPH oxidase inhibitors. Br J Pharmacol 161, 885-898 (2010)). Protein concentration was determined with the Pierce BCA protein assay (Fisher Scientific, Waltham, Mass.).
# as §1, §2
# Isolation of Tumor Cells from Mouse Xenografts Using Enzymatic Digestion and a double Ficoll gradient.
# To maximize the amount of isolated cells, avoiding the use of RFP-transfected cells and subsequent laser microdissection, an alternative methodology was set up. To maximize cell yield and viability the following combination of enzymes was used: collagenase III (200 U/ml; Sigma-Aldrich), DNase I (200 U/ml; Sigma-Aldrich) and trypsin (5 mg/ml; Invitrogen), and a non-enzymatic dissociation buffer (NEDB, Invitrogen). Briefly, mice were killed, and tumors were removed (avoiding skin, muscle and fat) into cold culture media and processed immediately. The tumors were minced into 1-3 mm fragments, which were then incubated with the dissociation solution (see above) for 30 min at 37° C. The tumor fragments were mixed up and down every 10 min using a […] micropipette with a tip cut to a diameter adapted to tissue fragment size. After each incubation period, the fragments were filtered through a […] nylon mesh cell strainer (BD Biosciences, San Diego, Calif., USA). The released cells were centrifuged at 1200 r.p.m. for 2 min and stored in cold CO2-independent medium with 30% FCS at […]. Fresh dissociation solution was added to the remaining tissue fragments for 30 min. Dissociation was stopped when no additional cells were released. The fragments were pushed through a sieve and all cells from all incubation periods were pooled and counted.
# The dissociated cells were layered onto a double Ficoll gradient (Histopaque; Sigma-Aldrich; densities 1.077 and 1.119) and spun at 700 g for 30 min at room temperature. Cells removed from both interfaces were pooled and washed two times in CO2-independent medium and stored at 4° C. Debris and red blood cell elimination was improved with the dual-density gradient. […]
smiles,measurement,setting,value
"COc1cc(/C=C/c2ccc(O)cc2)cc(OC)c1 [Pter, trans-3,5-dimethoxy-4′-hydroxystilbene]",pterostilbene levels in culture medium during incubation,"human melanoma cells; human melanoma cells, 60 min incubation",remained unchanged
same,melanoma cell proliferation and viability in vitro,"human melanoma cells; pterostilbene 15 μM, 60 min each 24 h",nor tumor cell proliferation neither viability were significantly affected
same,CAT,[1],1.0 ± 0.2 mU/10^6 cells
same,G6PDH,[1],264 ± 56 mU/10^6 cells
same,GCL,[1],36 ± 15 mU/10^6 cells
same,GGT,[1],19.7 ± 3.7 mU/10^6 cells
same,GPX,[1],9.2 ± 2.0 mU/10^6 cells
same,GSH,[1],3.7 ± 1.1 nmol/10^6 cells
same,GSH/GSSG,[1],12 ± 4
same,GSR,[1],2.3 ± 0.7 mU/10^6 cells
same,GSS,[1],4.0 ± 1.3 mU/10^6 cells
same,GSSG,[1],0.3 ± 0.1 nmol/10^6 cells
same,GST,[1],3.2 ± 1.0 mU/10^6 cells
same,H2O2,[1],1.3 ± 0.2 nmol/10^6 cells × min
same,IDH,[1],1.7 ± 0.5 U/10^6 cells
same,ME,[1],40 ± 7 mU/10^6 cells
same,NADPH,[1],0.03 ± 0.01 nmol/mg prot
same,NADPH/NADP^+,[1],0.6 ± 0.2
same,NADP^+,[1],0.05 ± 0.005 nmol/mg prot
same,NOX,[1],89 ± 25 R.L.U./10^6 cells
same,O2′−,[1],"5.9 ± 1.7 ΔFL1, a.u."
same,SOD1,[1],0.1 ± 0.05 U/10^6 cells
same,SOD2,[1],0.05 ± 0.02 U/10^6 cells
same,TXN,[1],0.2 ± 0.1 μg/10^6 cells
same,TXNRD,[1],0.8 ± 0.2 U/10^6 cells
same,CAT,Caco-2 cells,0.7 ± 0.2 mU/10^6 cells
same,GCL,Caco-2 cells,45 ± 14 mU/10^6 cells
same,GSH,Caco-2 cells,8 ± 3 nmol/10^6 cells
same,GSS,Caco-2 cells,5.5 ± 1.9 mU/10^6 cells
same,GSSG,Caco-2 cells,0.2 ± 0.1 nmol/10^6 cells
same,SOD1,Caco-2 cells,0.8 ± 0.3 U/10^6 cells
same,SOD2,Caco-2 cells,0.04 ± 0.01 U/10^6 cells
